Experimental data published in US11203591B2, “Substituted 6-azabenzimidazole compounds” (Gilead Sciences, Inc., priority 2018, dated 2021).

Target: human HPK1 (MAP4K1) (Homo sapiens (Human), UniProt Q92918)
Assay: HPK1 IC50 Assay (TR-FRET peptide phosphorylation)
Type: biochemical
In short: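 Readout: TR-FRET (665 nm/620 nm) after EDTA stop, detecting STK S1 peptide (1 μM) phosphorylation by 0.15 nM HPK1 kinase domain, ATP-pre-activated, at 10 μM ATP over 3 h, 25° C, pH 7.0. IC50s from four-parameter variable-slope fits, normalized to staurosporine and DMSO, averaged geometrically.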

[1] = recombinant HPK1 kinase domain 0.15 nM, 10 μM ATP, 1 μM STK S1 peptide, geometric mean of multiple experiments
[2] = 0.15 nM HPK1, 10 μM ATP, 1 μM STK S1 peptide substrate, geometric mean

Sequence of human HPK1 (MAP4K1) (Q92918 17-274): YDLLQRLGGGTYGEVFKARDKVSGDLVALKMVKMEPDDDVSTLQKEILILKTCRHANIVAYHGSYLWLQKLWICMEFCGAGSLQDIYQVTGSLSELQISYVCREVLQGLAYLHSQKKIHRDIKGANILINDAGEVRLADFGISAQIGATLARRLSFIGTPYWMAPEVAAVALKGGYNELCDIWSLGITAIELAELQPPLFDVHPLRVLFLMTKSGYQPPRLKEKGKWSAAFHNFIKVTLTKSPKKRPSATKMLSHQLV

SMILES	IC50 [1] [nM]	IC50 [2] [nM]
Cc1ccc(Nc2nc(-c3ccc4c(c3)N([C@H]3C[C@@H](N5CCCCC5)C3)C(=O)C4(C)C)cc3ncn(C(C)C)c23)cc1C(=O)NC1(C(F)F)CC1 [Example 27]	0.07	
CC(=O)N1CCC2(CC1)C(=O)N([C@H]1C[C@@H](N3CCCCC3)C1)c1cc(-c3cc4ncn(C(C)C)c4c(Nc4ccc(C)c(C(=O)NC(C)C)c4)n3)ccc12 [Example 83, 5-((6-(1′-acetyl-2-oxo-1-((1s,3s)-3-(piperidin-1-yl)cyclobutyl)spiro[indoline-3,4′-piperidin]-6-yl)-3-isopropyl-3H-imidazo[4,5-c]pyridin-4-yl)amino)-N-isopropyl-2-methylbenzamide]	0.1	
Cc1c(C(=O)NC2(C(F)F)CC2)cc(Nc2nc(-c3cnc4c(c3)N([C@H]3C[C@@](C)(N5C[C@H]6COC[C@H]6C5)C3)C(=O)C4(C)C)cc3ncn(C(C)C)c23)c(F)c1F [Example 189, N-(1-(Difluoromethyl)cyclopropyl)-5-((6-(3,3-dimethyl-1-((1S,3s)-3-methyl-3-((3 aR,6aS)-tetrahydro-1H-furo[3,4-c]pyrrol-5(3H)-yl)cyclobutyl)-2-oxo-2,3-dihydro-1H-pyrrolo[3,2-b]pyridin-6-yl)-3-isopropyl-3H-imidazo[4,5-c]pyridin-4-yl)amino)-3,4-difluoro-2-methylbenzamide]	0.2	
Cc1ccc(Nc2nc(-c3ccc4c(c3)N([C@H]3C[C@@H](N5CCCCC5)C3)C(=O)C4(C)C)cc3ncn(C4CC4)c23)cc1C(N)=O [Example 112]	0.09	
CC(=O)N1CCC2(CC1)C(=O)N([C@H]1C[C@@H](N3CCCCC3)C1)c1cc(-c3cc4ncn(C(C)C)c4c(Nc4ccc(C)c(C(=O)NCCO)c4)n3)ccc12 [Example 132]	0.1	
CNC(=O)c1cc(Nc2nc(-c3ccc4c(c3)N([C@H]3C[C@@H](N5CCCCC5)C3)C(=O)C43CCN(C(=O)C4(C)COC4)CC3)cc3ncn(C4CC4)c23)ccc1C [Example 85]	0.1	
Cc1ccc(Nc2nc(-c3ccc4c(c3)N([C@H]3C[C@@H](N5CCCCC5)C3)C(=O)C43CCOCC3)cc3ncn(C(C)C)c23)cc1C(=O)NC1(C(F)F)CC1 [Example 32]	0.08	
CNC(=O)c1cc(Nc2nc(-c3ccc4c(c3)N([C@H]3C[C@@H](N5CCCCC5)C3)C(=O)C43CCN(C(=O)C45CC(C4)C5)CC3)cc3ncn(C4CC4)c23)ccc1Cl [Example 41]	0.07	
Cc1cc(F)c(Nc2nc(-c3ccc4c(c3)N([C@H]3C[C@@H](N5CCC(C)(C)C5)C3)C(=O)C43CCN(C4COC4)CC3)cc3ncn(C(C)C)c23)cc1C(=O)NC(C)C [Example 100]	0.3	
CC[C@H](C)NC(=O)c1cc(Nc2nc(-c3ccc4c(c3)N([C@H]3C[C@@H](N5CCCCC5)C3)C(=O)C43CCN(C(C)=O)CC3)cc3ncn(C(C)C)c23)c(F)cc1C [Example 88]	0.2	
CCNC(=O)c1cc(Nc2nc(-c3cnc4c(c3)N([C@H]3C[C@@](C)(N5CCCCC5)C3)C(=O)C4(C)C)cc3ncn(C(C)C)c23)c(F)c(F)c1F [Example 278, 5-((6-(3,3-dimethyl-1-((1s,3s)-3-methyl-3-(piperidin-1-yl)cyclobutyl)-2-oxo-2,3-dihydro-1H-pyrrolo[3,2-b]pyridin-6-yl)-3-isopropyl-3H-imidazo[4,5-c]pyridin-4-yl)amino)-N-ethyl-2,3,4-trifluorobenzamide]		0.2
Cc1ccc(Nc2nc(-c3ccc4c(c3)N([C@H]3C[C@@H](N5CCCCC5)C3)C(=O)C43CCOCC3)cc3ncn(C(C)C)c23)cc1C(=O)NC1CCC1 [Example 23]	0.2	
CC(C)n1cnc2cc(-c3cnc4c(c3)N([C@H]3C[C@@](C)(N5CCCCCC5)C3)C(=O)C4(C)C)nc(Nc3cc(C(=O)NC4(CF)CC4)c(Cl)c(F)c3F)c21 [Example 249, 5-((6-(1-((1s,3s)-3-(azepan-1-yl)-3-methylcyclobutyl)-3,3-dimethyl-2-oxo-2,3-dihydro-1H-pyrrolo[3,2-b]pyridin-6-yl)-3-isopropyl-3H-imidazo[4,5-c]pyridin-4-yl)amino)-2-chloro-3,4-difluoro-N-(1-(fluoromethyl)cyclopropyl)benzamide]	0.04	
Cc1ccc(Nc2nc(-c3cnc4c(c3)N([C@H]3C[C@@H](N5CCCCC5)C3)C(=O)C4(C)C)cc3ncn(C(C)C)c23)cc1C(=O)NC1(C(F)F)CC1 [Example 19]	0.3	
Cc1c(C(=O)NC2(C(F)F)CC2)cc(Nc2nc(-c3ccc4c(c3)N([C@H]3C[C@@](C)(N5CCCCC5)C3)C(=O)C4(C)C)cc3ncn(C(C)C)c23)c(F)c1F [Example 236, N-(1-(Difluoromethyl)cyclopropyl)-5-((6-(3,3-dimethyl-1-((1s,3s)-3-methyl-3-(piperidin-1-yl)cyclobutyl)-2-oxoindolin-6-yl)-3-isopropyl-3H-imidazo[4,5-c]pyridin-4-yl)amino)-3,4-difluoro-2-methylbenzamide]	0.07	
CC(C)n1cnc2cc(-c3ccc4c(c3)N([C@H]3C[C@@](C)(N5CCCCC5)C3)C(=O)C4(C)C)nc(Nc3cc(C(=O)NC4(C(F)F)CC4)cc(F)c3F)c21 [Example 243, N-(1-(difluoromethyl)cyclopropyl)-3-((6-(3,3-dimethyl-1-((1s,3s)-3-methyl-3-(piperidin-1-yl)cyclobutyl)-2-oxoindolin-6-yl)-3-isopropyl-3H-imidazo[4,5-c]pyridin-4-yl)amino)-4,5-difluorobenzamide]	0.05	
CC(C)n1cnc2cc(-c3ccc4c(c3)N([C@H]3C[C@@](C)(N5CCCCC5)C3)C(=O)C4(C)C)nc(Nc3cc(C(=O)NCC(F)F)c(Cl)c(F)c3F)c21 [Example 287, 2-chloro-N-(2,2-difluoroethyl)-5-((6-(3,3-dimethyl-1-((1s,3s)-3-methyl-3-(piperidin-1-yl)cyclobutyl)-2-oxoindolin-6-yl)-3-isopropyl-3H-imidazo[4,5-c]pyridin-4-yl)amino)-3,4-difluorobenzamide]		0.08
Cc1cc(F)c(Nc2nc(-c3ccc4c(c3)N([C@H]3C[C@@H](N5CCCCC5)C3)C(=O)C43CCN(C4COC4)CC3)cc3ncn(C(C)C)c23)cc1C(=O)NC(C)C [Example 99]	0.2	
Cc1c(C(=O)NC2(C(F)F)CC2)cc(Nc2nc(-c3cnc4c(c3)N(C3CC(C)(N5CCC6C[C@@H]6C5)C3)C(=O)C4(C)C)cc3ncn(C(C)C)c23)c(F)c1F (stereo partly drawn) [Example 233, 5-((6-(1-((1s,3s)-3-(3-azabicyclo[4.1.0]heptan-3-yl)-3-methylcyclobutyl)-3,3-dimethyl-2-oxo-2,3-dihydro-1H-pyrrolo[3,2-b]pyridin-6-yl)-3-isopropyl-3H-imidazo[4,5-c]pyridin-4-yl)amino)-N-(1-(difluoromethyl)cyclopropyl)-3,4-difluoro-2-methylbenzamide]	0.08	
CC(C)n1cnc2cc(-c3cnc4c(c3)N([C@H]3C[C@@](C)(N5CCCC6(CC6)C5)C3)C(=O)C4(C)C)nc(Nc3cc(C(=O)NC4(C(F)F)CC4)c(Cl)c(F)c3F)c21 [Example 203, 2-Chloro-N-(1-(difluoromethyl)cyclopropyl)-5-((6-(3,3-dimethyl-1-((1s,3s)-3-methyl-3-(5-azaspiro[2.5]octan-5-yl)cyclobutyl)-2-oxo-2,3-dihydro-1H-pyrrolo[3,2-b]pyridin-6-yl)-3-isopropyl-3H-imidazo[4,5-c]pyridin-4-yl)amino)-3,4-difluorobenzamide]	0.07	
CCn1cnc2cc(-c3ccc4c(c3)N([C@H]3C[C@@H](N5CCCCC5)C3)C(=O)C4(C)C)nc(Nc3ccc(C)c(C(=O)NC)c3)c21 [Example 102]	0.09	
